The subject of data set [1] is Puccinia recondita f. Sp. Tritici. The experiment in a line: Puccinia recondita f. sp. tritici / wheat / leaf disc curative (brown rust). The format is in vivo. Conditions: foliar, 144 h, 200 ppm in the applied formulation, wheat leaf segments cv. Kanzler, applied 1 day after inoculation, assessed 6 to 8 days after application, vs untreated, read-out: disease control. The method in brief: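 Curative test: wheat leaf segments cv. Kanzler on agar inoculated with spore suspension, kept dark at 19 °C/75% RH, then sprayed 1 day post-inoculation with compound diluted in water. Incubated at 19 °C, 75% RH, 12 h light/dark; percent disease control versus untreated scored 6–8 days after application.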

Data set [2] has the same test system. Put plainly: Puccinia recondita f. sp. tritici / wheat / leaf disc preventative (brown rust). The format is in vivo. Conditions: foliar, 168 h, 200 ppm in the applied formulation, wheat leaf segments cv. Kanzler, preventative, inoculated 1 day after application, assessed 7 to 9 days after application, vs untreated, read-out: disease control. In outline:
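Wheat cv. Kanzler leaf segments on agar were sprayed with formulated compound in water, then inoculated with spores 1 day later. Incubated at 19° C, 75% rh, 12 h light/12 h dark; percent disease control versus untreated scored 7 to 9 days after application.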

The subject of data set [3] is Glomerella Lagenarium (Colletotrichum Lagenarium). The experiment in a line: Glomerella lagenarium (Colletotrichum lagenarium) liquid culture / cucumber / preventative (anthracnose). The format is cell-based. The note with it: Colletotrichum orbiculare; 20 ppm in the applied formulation; liquid culture in PDB, 24° C., inhibition of growth measured photometrically 3 to 4 days after application, vs untreated; read-out: disease control. The method in brief: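 Conidia from cryogenic storage were mixed into potato dextrose broth. This was added to compound diluted from DMSO into 0.025% Tween20, tested at 20 ppm. Plates were incubated in the dark at 24 °C and 96% relative humidity, and growth was read photometrically after 2–7 days as % activity versus untreated check.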

The next data set deals with Phakopsora pachyrhizi. Put plainly: Phakopsora pachyrhizi / soybean / leaf disc preventative (Asian soybean rust). Conditions: foliar, 288 h, 200 ppm in the applied formulation, soybean leaf disks, inoculated one day after application, assessed 12 to 14 days after application, vs untreated, read-out: disease control. The format is in vivo. The method in brief: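 Read-out is percent disease control relative to untreated check discs, assessed once untreated discs show adequate disease, 12 to 14 days after application. Compounds, tested at 200 ppm in the applied formulation, are sprayed onto soybean leaf discs one day before inoculation with a spore suspension.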

The subject of another data set is Uromyces viciae-Fabae. Put plainly: Uromyces viciae-fabae / field bean / leaf disc preventative (faba-bean rust). The format is in vivo. The note with it: foliar, 288 h, 100 ppm in the applied formulation, field bean leaf discs, inoculated two hours after application, assessed 12 days after application, vs untreated, read-out: disease control. On the procedure: Leaf disks or leaf segments of various plant species are cut from plants grown in a greenhouse. The cut leaf disks or segments are placed in multiwell plates (24-well format) onto water agar. The leaf disks are sprayed with a test solution before (preventative) or after (curative) inoculation. Compounds to be tested are prepared as DMSO solutions (max. 10 mg/ml) which are diluted to the appropriate concentration with 0.025% Tween20 just before spraying. The inoculated leaf disks or segments are incubated under defined conditions (temperature, relative humidity, light, etc.) according to the respective test system. A single evaluation of disease level is carried out 3 to 14 days after inoculation, depending on the pathosystem. Percent disease control relative to the untreated check leaf disks or segments is then calculated.
Field bean leaf discs are placed on water agar in multiwell plates (96-well format) and 10 μl of the formulated test compound diluted in acetone and a spreader pipetted onto the leaf disc. Two hours after application leaf discs are inoculated by spraying a spore suspension on the lower leaf surface. The leaf discs are incubated in a climate cabinet at 22° C. with 18 hour day and 70% relative humidity. The activity of a compound is assessed as percent disease control compared to untreated when an appropriate level of disease damage appears in untreated check leaf disks (12 days after application).
The following compounds at 100 ppm in the applied formulation give at least 80% disease control in this test when compared to untreated control leaf discs under the same conditions, which show extensive disease development.

Molecules are shown by their SMILES.

As a reminder, the melting point is the temperature, or range, at which the solid turns liquid. For `CCn1ncc(-c2cn(Cc3ccc(-c4noc(C(F)(F)F)n4)cc3)nn2)c1C` [Compound 1.2, 3-[4-[[4-(1-ethyl-5-methyl-pyrazol-4-yl)triazol-1-yl]methyl]phenyl]-5-(trifluoromethyl)-1,2,4-oxadiazole], the melting point is 138.3 to 140.1 °C. The pest or weed control at 200 ppm in data set [1] is no less than 80%. Further, in data set [2], the pest or weed control at 200 ppm is no less than 80%. In addition, the inhibition of growth at 20 ppm in data set [3] is no less than 80%. The pest or weed control at 200 ppm in the data set on Phakopsora pachyrhizi was no less than 80%. Further, in the data set with Uromyces viciae-Fabae, the pest or weed control at 100 ppm is no less than 80%.
With `FC(F)(F)c1nc(-c2ccc(Cn3cc(C4CC4)nn3)cc2)no1` [Compound 1.5, 3-[4-[(4-cyclopropyltriazol-1-yl)methyl]phenyl]-5-(trifluoromethyl)-1,2,4-oxadiazole], the melting point was 115.5 to 117.2 °C. In data set [1], the pest or weed control at 200 ppm was no less than 80%. Also, the pest or weed control at 200 ppm in data set [2] is no less than 80%. The inhibition of growth at 20 ppm in data set [3] was no less than 80%. Also, the pest or weed control at 200 ppm with Phakopsora pachyrhizi was no less than 80%. Moreover, in the data set on Uromyces viciae-Fabae, the pest or weed control at 100 ppm is no less than 80%.
`Cn1cncc1-c1cn(Cc2ccc(-c3noc(C(F)(F)F)n3)cc2)nn1` [Compound 1.6, 3-[4-[[4-(3-methylimidazol-4-yl)triazol-1-yl]methyl]phenyl]-5-(trifluoromethyl)-1,2,4-oxadiazole] yielded a melting point of 108.7 to 110.3 °C. The pest or weed control at 200 ppm in data set [1] was no less than 80%. For the same molecule, in data set [2], the pest or weed control at 200 ppm was no less than 80%. Besides, the inhibition of growth at 20 ppm in data set [3] was no less than 80%. The pest or weed control at 200 ppm with Phakopsora pachyrhizi was no less than 80%. For the same molecule, the pest or weed control at 100 ppm in the data set with Uromyces viciae-Fabae is no less than 80%.
Regarding `CC(C)(C)OC(=O)NCc1cn(Cc2ccc(-c3noc(C(F)(F)F)n3)cc2)nn1` [Compound 1.9, tert-butyl N-[[1-[[4-[5-(trifluoromethyl)-1,2,4-oxadiazol-3-yl]phenyl]methyl]triazol-4-yl]methyl]carbamate], the melting point was 134.7 to 136.9 °C. In data set [1], the pest or weed control at 200 ppm was no less than 80%. Besides, the pest or weed control at 200 ppm in data set [2] was no less than 80%. Moreover, the inhibition of growth at 20 ppm in data set [3] was no less than 80%. Also, in the data set with Phakopsora pachyrhizi, the pest or weed control at 200 ppm was no less than 80%. Moreover, the pest or weed control at 100 ppm with Uromyces viciae-Fabae was no less than 80%.
Consider `Cc1cc(C)n(Cc2ccc(-c3noc(C(F)(F)F)n3)cc2)n1` [Compound 1.15, 3-[4-[(3,5-dimethylpyrazol-1-yl)methyl]phenyl]-5-(trifluoromethyl)-1,2,4-oxadiazole], for which the melting point was in the range of 53 to 58 °C. Moreover, the pest or weed control at 200 ppm in data set [1] is no less than 80%. In data set [2], the pest or weed control at 200 ppm is no less than 80%. Moreover, in data set [3], the inhibition of growth at 20 ppm was no less than 80%. Further, the pest or weed control at 200 ppm in the data set with Phakopsora pachyrhizi is no less than 80%. Further, the pest or weed control at 100 ppm in the data set with Uromyces viciae-Fabae is no less than 80%.
Consider `FC(F)(F)c1nc(-c2ccc(Cn3cccn3)cc2)no1` [Compound 1.16, 3-[4-(pyrazol-1-ylmethyl)phenyl]-5-(trifluoromethyl)-1,2,4-oxadiazole], for which the melting point was 36 to 41 °C. The pest or weed control at 200 ppm in data set [1] was no less than 80%. Further, the pest or weed control at 200 ppm in data set [2] is no less than 80%. In addition, the inhibition of growth at 20 ppm in data set [3] was no less than 80%. Moreover, the pest or weed control at 200 ppm in the data set on Phakopsora pachyrhizi is no less than 80%. Moreover, the pest or weed control at 100 ppm in the data set on Uromyces viciae-Fabae is no less than 80%.
`FC(F)(F)c1nc(-c2ccc(Cn3ccnc3)cc2)no1` [Compound 1.18, 3-[4-(imidazol-1-ylmethyl)phenyl]-5-(trifluoromethyl)-1,2,4-oxadiazole] yielded a melting point of 45 to 55 °C. Moreover, the pest or weed control at 200 ppm in data set [1] was no less than 80%. Moreover, the pest or weed control at 200 ppm in data set [2] was no less than 80%. Further, the inhibition of growth at 20 ppm in data set [3] is no less than 80%. For the same molecule, the pest or weed control at 200 ppm in the data set on Phakopsora pachyrhizi is no less than 80%. Also, in the data set on Uromyces viciae-Fabae, the pest or weed control at 100 ppm was no less than 80%.
`FC(F)(F)c1nc(-c2ccc(Cn3cncn3)cc2)no1` [Compound 1.19, 3-[4-(1,2,4-triazol-1-ylmethyl)phenyl]-5-(trifluoromethyl)-1,2,4-oxadiazole]: the melting point lay in the range of 72 to 77 °C. The pest or weed control at 200 ppm in data set [1] was no less than 80%. In data set [2], the pest or weed control at 200 ppm was no less than 80%. In data set [3], the inhibition of growth at 20 ppm was no less than 80%. The pest or weed control at 200 ppm in the data set with Phakopsora pachyrhizi is no less than 80%. Also, in the data set with Uromyces viciae-Fabae, the pest or weed control at 100 ppm is no less than 80%.

Source of the values: US10798941B2, “Microbiocidal oxadiazole derivatives” (SYNGENTA PARTICIPATIONS AG, priority 2016, dated 2020).
